Test results: ChEMBL document CHEMBL1201862, “PubChem BioAssay data set” (2004)
Calls of active or inactive are those of the source.

Key:
[1] = PAX8-dependent cell viability loss – plate reader, dry powder, dose response (AID 743049); type: functional, cell-based
[2] = OV-90 cell viability loss – plate reader, dry powder, SA8, PAX8 inhibitor project, dose response (AID 743149); type: functional, cell-based
[3] = HEK-293T viability loss after treatment – luminescence, T-cell screen hits, cytotoxicity control for TCR NF-kB inhibitor project, dose response (AID 489026); type: functional, cell-based;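 further: cells exposed to compound about 14 hours before the viability readout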
[4] = toxicity toward immortalized ovarian surface epithelium – cell-based, plate reader, dry powder samples, cytotoxicity control for PAX8 inhibitor project, dose response (AID 743045); type: functional
BJ [5] = assay: BJ-TERT-LT-ST fibroblast viability loss – cell-based, RAS-independent, luminescence, dose response (AID 1935); type: functional; details: Homo sapiens;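 further: BJ fibroblasts immortalized with TERT plus LT and ST oncogenes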
[6] = A2780 cell killing – plate reader, dry powder samples, cytotoxicity control, dose response (AID 743046); type: functional, cell-based
[7] = OVCAR-3 cell viability loss – plate reader, dry powder samples, PAX8 inhibitor project, dose response (AID 743044); type: functional, cell-based
Paired box protein Pax-8 = Paired box protein Pax-8 (Homo sapiens, UniProt Q06710); assay: PAX8 transcriptional activity inhibition in RMG-I – RMG-I cells, luciferase, cherry-pick, dose response (AID 687027); type: functional, cell-based;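 further: luciferase reporter driven by Pax8 target thyroperoxidase promoter measured by SteadyGlo luminescence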
Chain of Paired box protein Pax-8 (Q06710 whole entry): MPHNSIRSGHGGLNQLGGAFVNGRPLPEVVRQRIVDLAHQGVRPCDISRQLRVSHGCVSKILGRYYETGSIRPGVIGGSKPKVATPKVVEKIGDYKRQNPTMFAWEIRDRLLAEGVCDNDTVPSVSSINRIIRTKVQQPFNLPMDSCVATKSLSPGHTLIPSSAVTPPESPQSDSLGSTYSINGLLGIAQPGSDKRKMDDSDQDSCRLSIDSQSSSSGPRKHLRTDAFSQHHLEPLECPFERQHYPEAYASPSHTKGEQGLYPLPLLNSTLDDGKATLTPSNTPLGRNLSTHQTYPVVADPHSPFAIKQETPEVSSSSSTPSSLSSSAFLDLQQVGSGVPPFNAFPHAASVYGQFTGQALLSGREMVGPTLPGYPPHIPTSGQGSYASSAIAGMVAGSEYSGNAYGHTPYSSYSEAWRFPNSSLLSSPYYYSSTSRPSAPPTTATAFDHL

[8] = COV434 cell viability loss – plate reader, dry powder, SA7, cytotoxicity control for PAX8 inhibitor project, dose response (AID 743145); type: functional, cell-based
[9] = DRD fibroblast viability loss – cell-based, non-viral oncogenic, luminescence, dose response (AID 1934); type: functional; details: Homo sapiens
[10] = PAX5 cellular inhibition readout – cell-based, plate reader, dry powder samples, selectivity assay for PAX8 inhibitor project, dose response (AID 743047); type: functional;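 further: HEK293 cells carrying a Pax5 driven CD19 promoter luciferase reporter; potency of inhibitors that lower reporter luminescence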
[11] = inhibitors acting on PAX2 in cells – cell-based, plate reader, dry powder samples, selectivity assay for PAX8 inhibitor project, dose response (AID 743048); type: functional;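 further: HEK293 cells carrying a WT1 promoter luciferase reporter driven by expressed Pax2; potency is for inhibition of Pax2 driven reporter signal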
[12] = OVCAR4 cell viability loss – plate reader, dry powder, SA11, cytotoxicity control for PAX8 inhibitor project, dose response (AID 743150); type: functional, cell-based; details: OVCAR-4
[13] = IGROV1 cell killing – plate reader, dry powder samples, PAX8 inhibitor project, dose response (AID 743043); type: functional, cell-based; details: IGROV-1
BJ [14] = assay: cells; type: functional, cell-based; details: Homo sapiens
BJ [15] = assay: BJ-TERT fibroblast viability loss – cell-based, RAS-independent, luminescence, dose response (AID 1933); type: functional; details: Homo sapiens
Fibrinogen beta chain [16] = target: T1, Fibrinogen beta chain (Homo sapiens, UniProt P02675); assay: Fluorescence polarization-based biochemical high throughput dose response assay to identify inhibitors that disrupt the binding of a cyclic peptide (Tn7) to the fibrin proteolytic product D-Dimer and fragment E complex [DD(E )].
T1 sequence (P02675 whole entry, the tested form may be a part): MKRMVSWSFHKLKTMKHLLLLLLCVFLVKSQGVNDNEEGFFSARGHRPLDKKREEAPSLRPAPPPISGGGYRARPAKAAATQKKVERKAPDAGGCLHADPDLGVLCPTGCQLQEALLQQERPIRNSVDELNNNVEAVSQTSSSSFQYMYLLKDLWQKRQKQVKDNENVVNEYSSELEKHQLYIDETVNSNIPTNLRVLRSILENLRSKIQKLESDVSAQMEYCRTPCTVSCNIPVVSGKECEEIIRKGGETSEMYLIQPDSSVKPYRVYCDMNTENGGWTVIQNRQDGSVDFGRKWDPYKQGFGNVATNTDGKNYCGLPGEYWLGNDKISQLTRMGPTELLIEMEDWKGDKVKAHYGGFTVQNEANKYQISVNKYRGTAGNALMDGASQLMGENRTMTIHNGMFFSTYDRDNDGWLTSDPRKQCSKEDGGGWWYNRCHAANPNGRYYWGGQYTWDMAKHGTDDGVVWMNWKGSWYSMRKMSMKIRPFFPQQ

Fibrinogen beta chain [17] = target: T1, Fibrinogen beta chain; assay: Fluorescence polarization-based biochemical high throughput dose response assay to identify inhibitors that disrupt the binding of a cyclic peptide (Tn6) to the fibrin proteolytic product D-Dimer and fragment E complex [DD(E )].
[18] = target: Glutathione-S-transferase (Schistosoma japonicum, UniProt Q26513); assay: GST-antibody interaction or FRET quenching – biochemical, TR-FRET, artefact control for Vif-APOBEC3G degradation inhibitor project, dose response (AID 1117362); type: functional
Chain of Glutathione-S-transferase (Q26513 whole entry): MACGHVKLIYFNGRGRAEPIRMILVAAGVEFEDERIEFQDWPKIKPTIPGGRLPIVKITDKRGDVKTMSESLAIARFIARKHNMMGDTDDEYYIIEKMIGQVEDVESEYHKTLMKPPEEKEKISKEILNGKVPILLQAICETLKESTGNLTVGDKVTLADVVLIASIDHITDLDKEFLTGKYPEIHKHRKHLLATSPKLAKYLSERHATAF

[19] = target: Induced myeloid leukemia cell differentiation protein Mcl-1 (Homo sapiens, UniProt Q07820); type: functional
Chain of Induced myeloid leukemia cell differentiation protein Mcl-1 (Q07820 whole entry): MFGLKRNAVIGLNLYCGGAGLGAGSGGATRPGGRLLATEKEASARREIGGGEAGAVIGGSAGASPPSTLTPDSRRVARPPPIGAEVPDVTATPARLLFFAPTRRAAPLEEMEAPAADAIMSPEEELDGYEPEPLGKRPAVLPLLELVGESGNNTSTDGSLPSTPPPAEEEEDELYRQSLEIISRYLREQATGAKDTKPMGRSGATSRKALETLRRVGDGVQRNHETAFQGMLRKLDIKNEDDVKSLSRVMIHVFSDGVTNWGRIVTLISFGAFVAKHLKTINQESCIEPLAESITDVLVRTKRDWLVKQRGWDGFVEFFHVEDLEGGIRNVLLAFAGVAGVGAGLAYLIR

[20] = Late stage results for the probe development effort to identify inhibitors of Plasmodium falciparum gametocytes: Luminescence-based cell-based high throughput dose response assay to identify inhibitors of viability of late stage Plasmodium falciparum gametocytes.; type: functional
[21] = toxicity to HepG2 liver cells – cell-based, plate reader, dry powder, set 6, cytotoxicity control, dose response (AID 743311); type: functional
[22] = rise of 2N DNA cells, HeLa – IC50, dose response (AID 1117349); type: functional, cell-based
[23] = cytotoxicity toward Colo320 cells – cell-based, CellTiter-Glo luminescence, IC50, dose response (AID 1117334); type: functional; details: COLO 320
[24] = RKO cell viability reduction, dose response, CellTiter-Glo luminescence (AID 1117322); type: functional
[25] = cytotoxicity toward HT-29 cells – cell-based, CellTiter-Glo luminescence, IC50, dose response (AID 1117330); type: functional
[26] = SNU-C1 cell viability reduction, dose response, CellTiter-Glo luminescence (AID 1117323); type: functional, cell-based
[27] = rise of 4N DNA cells, HeLa – IC50, dose response (AID 1117351); type: functional, cell-based
[28] = CellTiter-Glo luminescence survival assay, SW480 colon tumor line, concentration-response curve, half-maximal inhibitory concentration (AID 1117338); type: functional
[29] = HCT116 cell viability decrease, GSK3B pretreatment – CellTiter-Glo, IC50, dose response (AID 1117339); type: functional; details: HCT-116
[30] = Reduced DLD-1 viability, concentration-response, CellTiter-Glo luminescence (AID 1117352); type: functional
[31] = cytotoxicity toward HCT116 cells – cell-based, CellTiter-Glo luminescence, IC50, dose response (AID 1117332); type: functional; details: HCT-116

## CCOCCCNC(=O)c1ccc2c(c1)N=C(CC)c1cc(Br)ccc1S2
[1]
  AC50: 0.386 µM (active)
[2]
  AC50: 0.497 µM (active)
[3]
  IC50: > 80 µM (inactive)
[4]
  AC50: 0.403 µM (active)
BJ [5]
  EC50: 0.455 µM (active)
[6]
  AC50: 1.35 µM (active)
[7]
  AC50: 0.3 µM (active)
Paired box protein Pax-8
  AC50: 1.22 µM (active)
[8]
  AC50: 1.07 µM (active)
[9]
  EC50: 0.358 µM (active)
[10]
  AC50: 41.8 µM (active)
[11]
  AC50: 15.3 µM (active)
[12]
  AC50: 1.16 µM (active)
[13]
  AC50: 4.78 µM (active)
BJ [14]
  EC50: 0.828 µM (inconclusive)
BJ [15]
  EC50: 0.342 µM (active)

## Nc1c(SCCC(=O)O)ccc2c1C(=O)c1ccccc1C2=O
Fibrinogen beta chain [16]
  IC50: > 83.3 µM (inactive)
Fibrinogen beta chain [17]
  IC50: 11.7 µM (inactive)

## COc1ccc(O)c(N)c1
[18]
  IC50: > 100 µM (active)
[19]
  IC50: 1.53 µM (active)

## Cc1cnc(NC(=O)c2cn(-c3ccccc3)nc2-c2cccnc2)s1
[20]
  IC50: > 74.4 µM (inactive)

## O=S(=O)(c1ccc(OCCn2cnc3ccccc32)cc1)N1CCOCC1
[21]
  AC50: > 52 µM (inactive)

## Cc1nc(N)nc(N)c1-c1ccc(Cl)c(Cl)c1 [METOPRINE]
[22]
  IC50: > 10 µM (inactive)
[23]
  IC50: 2.03 µM (active)
[24]
  IC50: 0.117 µM (active)
[25]
  IC50: 0.932 µM (active)
[26]
  IC50: 2.16 µM (active)
[27]
  IC50: > 10 µM (inactive)
[28]
  IC50: 0.512 µM (active)
[29]
  IC50: 0.0589 µM (active)
[30]
  IC50: 0.634 µM (active)
[31]
  IC50: 0.413 µM (active)
